Assay results reported in paper PMC12889028, “Discovery and biological evaluation of novel N-aryl-N′-methylbenzodrazides against Schistosoma japonicum in vitro and in vivo” (Microbiology Spectrum, 2025).
Read-outs that look alike come from different tables or passages of the source.

What was measured:
[1] = system: MCF-7 (human breast cancer) cells; experiment: Cytotoxicity MTT assay, MCF-7; format: cell-based; settings: 48 h incubation
Experimental: (§1) The cytotoxicity of compounds 5, 18, and 41 against human liver cancer (HepG2) and human breast cancer (MCF-7) cell lines in vitro was evaluated using the MTT assay, with cisplatin as a positive control. Cells were plated into 96-well plates and incubated in 100 μL of Dulbecco’s modified Eagle’s medium for 24 h. Test compounds at specified final concentrations were then added to the culture medium. After 48 h incubation, MTT dye (10 μL, 0.5 mg/mL) was added, and cells were incubated for an additional 4 h at 37°C in 5% CO2. Formazan crystals were dissolved in 100 μL DMSO per well, and absorbance at 570 nm (OD570) was measured using an ELx800 microplate reader (Bio-Tek, Winooski, VT, USA) with background subtraction. Cytotoxicity was expressed as IC50 (the concentration causing 50% reduction in cell growth compared to untreated controls). Experiments were performed in triplicate, with results presented as mean ± standard deviation.

[2] = system: HepG2 (human liver cancer) cells; experiment: Cytotoxicity MTT assay, HepG2; format: cell-based; settings: 48 h incubation
Experimental: as §1

[3] = system: adult worms of S. japonicum (Chinese strain); experiment: microbe, parasite or virus in culture; settings: for Mortality (%) 72 h: 100 μM, adult worms in vitro
Experimental: S. japonicum cercariae (Chinese strain) were acquired from infected Oncomelania hupensis snails (Wuxi Insect Vector Biology Co., Ltd., China) ([28]). ICR mice (6–8 weeks, 22–25 g; Hunan SJA Laboratory Animal Co., Ltd., China) were percutaneously infected via abdominal exposure to 60 ± 5 cercariae. Adult schistosomes were perfused from the hepatic portal system at 35 dpi using a modified Duvall and DeWitt method ([29]). Animals were housed under controlled conditions (22°C ± 1°C, 12 h light/dark cycle) with ad libitum access to feed and water.
Adult S. japonicum worms isolated from ICR mice were maintained in sterile culture medium (2.0 mL) comprising 77% RPMI 1640 (Lanzhou Bailing Biotech Co., Ltd.; pH 7.5, HEPES-buffered), 20% heat-inactivated fetal bovine serum (Lanzhou Minhai Bio-Engineering Co., Ltd.), and 3% penicillin-streptomycin (100×; 10,000 U/mL penicillin, 10,000 μg/mL streptomycin; New Cell & Molecular Biotech Co., Ltd., China). Incubation was performed at 37°C under 5% CO2. Test compounds were dissolved in DMSO as 0.1 M stock solutions; 2.0 μL aliquots were added to worm-containing media (final concentration: 100 μM in 0.1% DMSO). Negative controls received equivalent volumes of vehicle (0.1% DMSO in RPMI 1640). Parasite viability (motor activity, tegumental integrity, survival) was assessed every 12 h for 72 h using an Olympus CKX53 inverted microscope (n ≥ 3 independent replicates).

[4] = system: S. japonicum (Chinese strain); experiment: In vivo antischistosomal assay in infected mice (worm burden, worm morphology, liver eggs); set-up: species or system Schistosoma japonicum in ICR mice
Experimental: Lead compounds 5, 18, and 41 (100 mg/kg) were orally administered once daily for 5 consecutive days to infected mice (n = 6/group) during two therapeutic windows: (i) Juvenile stage: treatment initiated at 9 dpi, terminal sacrifice at 45 dpi; (ii) adult stage: treatment initiated at 35 dpi, terminal sacrifice at 45 dpi. Positive controls received praziquantel (PZQ, 100 mg/kg/day ×5 days); negative controls received PBS (0.3 mL). Mice treated at 9 dpi were euthanized 36 days post-treatment; those treated at 35 dpi were euthanized 10 days post-treatment. Adult worms were perfused from the hepatic portal system and mesenteric veins. Parasite burden was quantified by worm enumeration, and worm burden reduction (WBR) was calculated:
WBR (%)=[1−Mean worm count (treated) / Mean worm count (control)]×100% .

[5] = system: adult S. japonicum worms; experiment: SEM examination in vitro of tegumental damage; format: cell-based, Schistosoma japonicum; settings: 100 μM
Experimental: Adult S. japonicum worms (male/female) underwent standardized fixation after in vitro exposure to compounds 5, 18, and 41 over a period of 12 h. First, the samples were immersed in 2.5% glutaraldehyde (prepared with 40 mL 0.2 M phosphate-buffered saline [PBS, pH 7.4], 5 mL 50% glutaraldehyde stock, and 55 mL ultrapure water) at 4°C for 24 h. After triple washes in PBS for 5 min each, worms were rinsed with deionized water for 10 min. The next dehydration sequence included ethanol gradient (50%, 70%, 80%, 90%, 100%; 5 min/step) and tert-butanol gradient (50%, 70%, 90%, 100%; 10 min/step). The worms were freeze-dried, directly sputter-covered with a thin gold layer using a Sputter Coater, and imaged using a scanning electron microscope (Quanta 450).

[6] = Schistosoma japonicum, 24 h, read-out: Mortality (%) 24 h, 100 μM, 24 h, adult worms in vitro
[7] = Schistosoma japonicum, 36 h, read-out: Mortality (%) 36 h, 100 μM, 36 h, adult worms in vitro
[8] = Schistosoma japonicum, 48 h, read-out: Mortality (%) 48 h, 100 μM, 48 h, adult worms in vitro
[9] = Schistosoma japonicum, 72 h, read-out: Mortality (%) 72 h, 100 μM, 72 h, adult worms in vitro

Compound | mortality at 100 µM [3, 6] | mortality at 100 µM [3, 7] | mortality at 100 µM [3, 8] | mortality at 100 µM [3, 9] | also measured
N.N.[Cl][Pt][Cl] [Cisplatin, reference compound] |  |  |  |  | IC50 [1]: 1.17 ± 0.13 µM; IC50 [2]: 3.51 ± 0.14 µM
CN(NC(=O)c1cccc(Cl)c1)c1ccc(Cl)c(Cl)c1 [Compound 23] | 0% | 5% | 40% | > 90% | Mortality (%) 72 h ([3]; 72 h): 95%
CN(NC(=O)c1ccc(F)c(F)c1)c1ccc(Cl)c(Cl)c1 [Compound 24] | 0% | 5% | 45% | > 90% | Mortality (%) 72 h ([3]; 72 h): 90%
CN(NC(=O)c1ccc(F)c(C(F)(F)F)c1)c1ccc(Cl)c(Cl)c1 [Compound 25] | 0% | 0% | 30% | 80% | 
Cc1ccc(N(C)NC(=O)c2ccc(Br)cc2)cc1 [Compound 26] | 0% | 0% | 10% | 10% | 
COc1ccc(N(C)NC(=O)c2ccc(Br)cc2)cc1 [Compound 27] | 0% | 0% | 0% | 0% | 
CN(NC(=O)c1ccc(Br)cc1)c1ccc(F)cc1 [Compound 28] | 0% | 0% | 0% | 0% | 
CN(NC(=O)c1ccc(Br)cc1)c1ccc(Cl)cc1 [Compound 29] | 0% | 0% | 0% | 35% | 
CN(NC(=O)c1ccc(Br)cc1)c1ccc(Br)cc1 [Compound 30] | 0% | 10% | 65% | 100% | 
CN(NC(=O)c1ccc(Br)cc1)c1ccc(C(F)(F)F)cc1 [Compound 31] | 0% | 10% | 55% | 75% | 
CN(NC(=O)c1ccc(Br)cc1)c1ccc(C#N)cc1 [Compound 32] | 0% | 0% | 0% | 0% | 
Cc1cccc(N(C)NC(=O)c2ccc(Br)cc2)c1 [Compound 33] | 0% | 15% | 40% | 70% | 
CN(NC(=O)c1ccc(Br)cc1)c1cccc(Cl)c1 [Compound 34] | 0% | 0% | 0% | 90% | 
CN(NC(=O)c1ccc(Br)cc1)c1cccc(Br)c1 [Compound 35] | 0% | 0% | 30% | 60% | 
CN(NC(=O)c1ccc(Br)cc1)c1cccc(C(F)(F)F)c1 [Compound 36] | 0% | 0% | 10% | 80% | 
Cc1ccccc1N(C)NC(=O)c1ccc(Br)cc1 [Compound 37] | 0% | 0% | 0% | 0% | 
CN(NC(=O)c1ccc(Br)cc1)c1ccccc1F [Compound 38] | 0% | 0% | 10% | 10% | 
CN(NC(=O)c1ccc(Br)cc1)c1ccccc1Cl [Compound 39] | 0% | 0% | 10% | 20% | 
CN(NC(=O)c1ccc(Br)cc1)c1cc(Cl)cc(Cl)c1 [Compound 40] | 0% | 20% | 70% | 100% | 
O=C(C1CCCCC1)N1CC(=O)N2CCc3ccccc3C2C1 (stereo not drawn) [PZQ, praziquantel, reference compound] |  |  |  |  | Worm burden reduction (WBR), Adult ([4]; mice, oral 100 mg/kg/day for 5 days, adult stage (from 35 dpi), 100 mg/kg/day): 100%; Number of worms, Adult ([4]; mice, oral 100 mg/kg/day for 5 days, adult stage (treatment from 35 dpi, sacrifice 45 dpi)): 0; Morphology of worms after treatment in vivo, juvenile stage ([4]; mice, oral 100 mg/kg/day for 5 days, juvenile stage): no significant tegumental alterations compared to negative controls; Worm burden reduction (WBR), Juvenile ([4]; mice, oral 100 mg/kg/day for 5 days, juvenile stage (from 9 dpi), 100 mg/kg/day): 0%; Number of worms, Juvenile ([4]; mice, oral 100 mg/kg/day for 5 days, juvenile stage (treatment from 9 dpi, sacrifice 45 dpi)): 39; Hepatic egg burden, adult-stage treatment ([4]; mouse livers at 45 dpi, treatment in adult stage): significantly reduced both ovum dimensions and egg counts; Hepatic egg burden, juvenile-stage treatment ([4]; mouse livers at 45 dpi, treatment in juvenile stage): without statistically significant ovicidal efficacy; mortality at 100 µM ([3]; Schistosoma japonicum, 24 h, read-out: Mortality (%) 24 h): 100%; mortality at 100 µM ([3]; Schistosoma japonicum, 36 h, read-out: Mortality (%) 36 h): 100%; mortality at 100 µM ([3]; Schistosoma japonicum, 48 h, read-out: Mortality (%) 48 h): 100%; LC50 ([3]; Schistosoma japonicum, 72 h, read-out: LC50 (72 h)): 43.8 ± 8.26 µM; mortality at 100 µM ([3]; Schistosoma japonicum, 72 h, read-out: Mortality (%) 72 h): 100%; Tegumental damage (SEM), female adult worms ([5]; female worms): multifocal vesiculation, ulcerative lesions penetrating the basal lamina, and progressive tegumental corrugation; Tegumental damage (SEM), male adult worms ([5]; male worms): extensive tegumental desquamation, complete muscular layer exposure with striation disruption, and ventral sucker collapse
